The NIST ThermoML archive (doi:10.1016/j.jct.2008.08.007)

Assay: molar heat capacity at constant pressure
Settings: 101.33 kPa, Crystal

O=CC[C@H](O)[C@H](O)CO [2-deoxy-D-erythropentose]
Small sample (50 mg) DSC
Settings	molar heat capacity at constant pressure [J/K/mol]
288.15 K	171.9
293.15 K	167.6
298.15 K	162
303.15 K	163.6
308.15 K	171.7
313.15 K	178.4
318.15 K	184.1
323.15 K	197.4
328.15 K	222

O=C[C@H](O)[C@@H](O)[C@@H](O)[C@H](O)CO [(+)-galactose]
Small sample (50 mg) DSC
Settings	molar heat capacity at constant pressure [J/K/mol]
288.15 K	203.3
293.15 K	210.7
298.15 K	213.7
303.15 K	217.5
308.15 K	222.3
313.15 K	227.1
318.15 K	229.4
323.15 K	235.6
328.15 K	236.8
333.15 K	242.8
338.15 K	247
343.15 K	251.2
348.15 K	254.7
353.15 K	257.5
358.15 K	265.1

OC[C@H]1OC(O)C[C@@H](O)[C@@H]1O (stereo partly drawn) [2-deoxy-D-glucose]
Small sample (50 mg) DSC
Settings	molar heat capacity at constant pressure [J/K/mol]
288.15 K	189.6
293.15 K	195.8
298.15 K	200.2
303.15 K	201
308.15 K	204.5
313.15 K	206.9
318.15 K	209
323.15 K	213.6
328.15 K	214.7
333.15 K	218.4
338.15 K	224.9
343.15 K	226.4
348.15 K	233
353.15 K	235.4
358.15 K	244

OC[C@H]1O[C@@H]2O[C@H]3[C@H](O)[C@@H](O)[C@@H](O[C@H]4[C@H](O)[C@@H](O)[C@@H](O[C@H]5[C@H](O)[C@@H](O)[C@@H](O[C@H]6[C@H](O)[C@@H](O)[C@@H](O[C@H]7[C@H](O)[C@@H](O)[C@@H](O[C@H]1[C@H](O)[C@H]2O)O[C@@H]7CO)O[C@@H]6CO)O[C@@H]5CO)O[C@@H]4CO)O[C@@H]3CO [α-cyclodextrin]
Small sample (50 mg) DSC
Settings	molar heat capacity at constant pressure [J/K/mol]
288.15 K	1074.6
293.15 K	1113.2
298.15 K	1150
303.15 K	1164.1
308.15 K	1201.5
313.15 K	1212.6
318.15 K	1230.2
323.15 K	1259.3
328.15 K	1282.6
333.15 K	1305.3
338.15 K	1335.3
343.15 K	1364.6
348.15 K	1401.6
353.15 K	1442.6
358.15 K	1502.7

CC(=O)N[C@@H](C=O)[C@@H](O)[C@H](O)[C@H](O)CO [N-acetyl-D-glucosamine]
Small sample (50 mg) DSC
Settings	molar heat capacity at constant pressure [J/K/mol]
288.15 K	269.8
293.15 K	276.4
298.15 K	276.9
303.15 K	278
308.15 K	283.3
313.15 K	281
318.15 K	281.4
323.15 K	292.7
328.15 K	293.1
333.15 K	299.4
338.15 K	303.8
343.15 K	308.7
348.15 K	319.7
353.15 K	325.2
358.15 K	332

O.OC[C@H]1O[C@@H](O[C@H]2[C@H](O)[C@@H](O)[C@@H](O)O[C@@H]2CO)[C@H](O)[C@@H](O)[C@H]1O [α-D-lactose hydrate]
Small sample (50 mg) DSC
Settings	molar heat capacity at constant pressure [J/K/mol]
288.15 K	400.9
293.15 K	426.9
298.15 K	435.8
303.15 K	440.7
308.15 K	446.4
313.15 K	450
318.15 K	452.2
323.15 K	459.8
328.15 K	464.5
333.15 K	468.3
338.15 K	477.1
343.15 K	488.2
348.15 K	497.7
353.15 K	506.8
358.15 K	522.7

OC[C@H]1O[C@H](O)[C@H](O)[C@@H](O)[C@@H]1O [α-D-glucose]
Small sample (50 mg) DSC
Settings	molar heat capacity at constant pressure [J/K/mol]
288.15 K	210.2
293.15 K	214.8
298.15 K	219.9
303.15 K	222.8
308.15 K	226.5
313.15 K	232.6
318.15 K	235.8
323.15 K	240.5
328.15 K	242.1
333.15 K	246.2
338.15 K	250.5
343.15 K	255.2
348.15 K	260.4
353.15 K	262.4
358.15 K	267.7

OC[C@H]1O[C@@H]2O[C@H]3[C@H](O)[C@@H](O)[C@@H](O[C@H]4[C@H](O)[C@@H](O)[C@@H](O[C@H]5[C@H](O)[C@@H](O)[C@@H](O[C@H]6[C@H](O)[C@@H](O)[C@@H](O[C@H]7[C@H](O)[C@@H](O)[C@@H](O[C@H]8[C@H](O)[C@@H](O)[C@@H](O[C@H]1[C@H](O)[C@H]2O)O[C@@H]8CO)O[C@@H]7CO)O[C@@H]6CO)O[C@@H]5CO)O[C@@H]4CO)O[C@@H]3CO [β-cyclodextrin]
Small sample (50 mg) DSC
Settings	molar heat capacity at constant pressure [J/K/mol]
288.15 K	1253.4
293.15 K	1298.3
298.15 K	1341.3
303.15 K	1357.6
308.15 K	1401.3
313.15 K	1414.1
318.15 K	1434.7
323.15 K	1468.5
328.15 K	1495.7
333.15 K	1522.1
338.15 K	1557.1
343.15 K	1591.3
348.15 K	1634.4
353.15 K	1682.1
358.15 K	1752.1

O=C[C@@H](O)[C@@H](O)[C@H](O)[C@H](O)CO [D-mannose]
Small sample (50 mg) DSC
Settings	molar heat capacity at constant pressure [J/K/mol]
288.15 K	188.7
293.15 K	200.7
298.15 K	206.6
303.15 K	215
308.15 K	223.3
313.15 K	228.2
318.15 K	231.6
323.15 K	234.5
328.15 K	236.5
333.15 K	242.1
338.15 K	245.2
343.15 K	249
348.15 K	252.4
353.15 K	254.1
358.15 K	260.2

O=C[C@H](O)[C@H](O)[C@H](O)CO [D-ribose]
Small sample (50 mg) DSC
Settings	molar heat capacity at constant pressure [J/K/mol]
288.15 K	171.3
293.15 K	179.4
298.15 K	183.2
303.15 K	188.8
308.15 K	193.9
313.15 K	201.3
318.15 K	209
323.15 K	224.6
328.15 K	245.1

O[C@@H]1[C@@H](O)[C@@H](O)OC[C@H]1O [xylopyranose, α-D-]
Vacuum adiabatic calorimetry
Settings	molar heat capacity at constant pressure [J/K/mol]
288.15 K	178.3
293.15 K	180.9
298.15 K	180.4
303.15 K	182.8
308.15 K	185.7
313.15 K	185.8
318.15 K	187.3
323.15 K	190.4
328.15 K	192
333.15 K	192.6
338.15 K	195.7
343.15 K	200
348.15 K	204.6
353.15 K	209.4
358.15 K	213.8

CO[C@H]1O[C@H](CO)[C@@H](O)[C@H](O)[C@H]1O [methyl-α-D-glucopyranoside]
Small sample (50 mg) DSC
Settings	molar heat capacity at constant pressure [J/K/mol]
288.15 K	232.1
293.15 K	231
298.15 K	233.7
303.15 K	235.7
308.15 K	240.7
313.15 K	247.5
318.15 K	255.9
323.15 K	264.7
328.15 K	274.2
333.15 K	283.6
338.15 K	293.4
343.15 K	302.9
348.15 K	311.5
353.15 K	319
358.15 K	325.5

O=C(CO)[C@@H](O)[C@H](O)[C@H](O)CO [D-fructose]
Small sample (50 mg) DSC
Settings	molar heat capacity at constant pressure [J/K/mol]
288.15 K	220.3
293.15 K	223.6
298.15 K	227.7
303.15 K	233.3
308.15 K	236.9
313.15 K	242.4
318.15 K	247.3
323.15 K	251.5
328.15 K	251.8
333.15 K	255.1
338.15 K	259.6
343.15 K	260.9
348.15 K	266.4
353.15 K	275.3
358.15 K	290.4

OC[C@H]1O[C@@H](O[C@H]2[C@H](O)[C@@H](O)[C@H](O)O[C@@H]2CO)[C@H](O)[C@@H](O)[C@@H]1O [D-cellobiose]
Small sample (50 mg) DSC
Settings	molar heat capacity at constant pressure [J/K/mol]
288.15 K	407.8
293.15 K	431
298.15 K	436.1
303.15 K	445
308.15 K	443.1
313.15 K	446.9
318.15 K	448.7
323.15 K	463.2
328.15 K	463.5
333.15 K	473.1
338.15 K	481.1
343.15 K	490.7
348.15 K	503.2
353.15 K	515.8
358.15 K	534.8

O=C[C@H](O)[C@@H](O)[C@H](O[C@H]1O[C@H](CO)[C@@H](O[C@H]2O[C@H](CO)[C@@H](O)[C@H](O)[C@H]2O)[C@H](O)[C@H]1O)[C@H](O)CO [maltotriose]
Small sample (50 mg) DSC
Settings	molar heat capacity at constant pressure [J/K/mol]
288.15 K	638.3
293.15 K	654
298.15 K	662.5
303.15 K	662.7
308.15 K	666.3
313.15 K	676.9
318.15 K	683.9
323.15 K	698.2
328.15 K	707.4
333.15 K	718.6
338.15 K	736.3
343.15 K	753.8
348.15 K	773.2
353.15 K	787.3
358.15 K	823.7

OC[C@H]1O[C@@](CO)(O[C@H]2O[C@H](CO)[C@@H](O)[C@H](O)[C@H]2O)[C@@H](O)[C@@H]1O [D-sucrose]
Small sample (50 mg) DSC
Settings	molar heat capacity at constant pressure [J/K/mol]
288.15 K	408.5
293.15 K	416.6
298.15 K	424.3
303.15 K	429.4
308.15 K	437.5
313.15 K	445.5
318.15 K	451
323.15 K	466.2
328.15 K	472.6
333.15 K	482.5
338.15 K	490.3
343.15 K	498.8
348.15 K	506.7
353.15 K	513.9
358.15 K	522
